Test results reported in PubChem BioAssay (NCI).
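Grown in 96-well plates, cells were treated for 48 hours with each compound at five concentrations. Insufficient inhibition: endpoint recorded as highest concentration tested. At the TGI there is no net growth.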

Legend:
Experiment in all cases: inhibition of tumour cell growth, NCI panel, 48 h
[1] = test system: 786-0 renal
[2] = test system: A498 renal
[3] = test system: ACHN renal
[4] = test system: HOP-62 NSCLC
[5] = test system: HOP-92 NSCLC
[6] = test system: HT29 colon
[7] = test system: MOLT-4 leukemia
[8] = test system: NCI-H460 lung
[9] = test system: NCI-H522 lung
[10] = test system: OVCAR-4 ovarian
[11] = test system: OVCAR-5 ovarian
[12] = test system: OVCAR-8 ovarian
[13] = test system: SF-539 CNS
[14] = test system: SK-MEL-5 melanoma
[15] = test system: SNB-75 CNS
[16] = test system: U251 CNS
[17] = test system: UACC-62 melanoma
[18] = test system: COLO 205 colon
[19] = test system: M14 melanoma
[20] = test system: SF-295 CNS

| SMILES | TGI [1] [µM] | TGI [2] [µM] | TGI [3] [µM] | TGI [4] [µM] | TGI [5] [µM] | TGI [6] [µM] | TGI [7] [µM] | TGI [8] [µM] | TGI [9] [µM] | TGI [10] [µM] | TGI [11] [µM] | TGI [12] [µM] | TGI [13] [µM] | TGI [14] [µM] | TGI [15] [µM] | TGI [16] [µM] | TGI [17] [µM] | TGI [18] [µM] | TGI [19] [µM] | TGI [20] [µM] |
| --- | --- | --- | --- | --- | --- | --- | --- | --- | --- | --- | --- | --- | --- | --- | --- | --- | --- | --- | --- | --- |
| COC(=O)[C@@H]1C[C@]2(Br)c3ccccc3N(S(=O)(=O)c3ccccc3)[C@@H]2N1C(=O)OC | > 100 | > 100 | > 100 | > 100 | > 100 | > 100 | > 100 | > 100 | > 100 | > 100 | > 100 | > 100 | > 100 | > 100 | > 100 | > 100 | > 100 | – | – | – |
| C#CC(C)(C)OCCCCOc1cc(O)c2c(=O)c3ccccc3n(C)c2c1 | > 100 | > 100 | > 100 | > 100 | > 100 | 45.7 | – | > 100 | > 100 | > 100 | > 100 | > 100 | > 100 | > 100 | > 100 | > 100 | > 100 | 80.4 | > 100 | > 100 |
| COc1ccc(NC(=O)C(C#N)=C(SC)SC)cc1 | > 100 | > 100 | > 100 | > 100 | 55.6 | > 100 | > 100 | > 100 | > 100 | > 100 | > 100 | – | > 100 | > 100 | – | > 100 | > 100 | > 100 | > 100 | > 100 |
| Cn1ccc(=NS(=O)(=O)c2ccccc2)cc1 | > 100 | > 100 | > 100 | > 100 | > 100 | > 100 | > 100 | > 100 | > 100 | – | > 100 | > 100 | > 100 | > 100 | > 100 | > 100 | – | > 100 | – | > 100 |
| Oc1ccc(C2Oc3cc(O)cc4c3C2c2cc(O)cc3c2C(c2cc(O)cc5c2C4C(c2ccc(O)cc2)O5)C(c2ccc(O)cc2)O3)cc1 (centres undefined) | > 25 | > 25 | > 25 | > 25 | 21.3 | – | > 25 | > 25 | > 25 | 10.4 | > 25 | 22.8 | 22.8 | > 25 | 15.5 | > 25 | > 25 | > 25 | > 25 | – |
| COc1ccc([Se][Se]c2ccc(OC)cc2OC)c(OC)c1 | 7.78 | 53.5 | 8.89 | – | 4.46 | > 100 | 19.2 | > 100 | 4 | 4.6 | – | > 100 | 3.16 | 29.3 | 3.11 | – | 4.14 | > 100 | 9.3 | 4.03 |
| C[N+](C)(C)C1CC([N+](C)(C)C)C2c3ccccc3C21 (centres undefined) | > 100 | > 100 | > 100 | > 100 | > 100 | > 100 | – | > 100 | > 100 | > 100 | > 100 | > 100 | > 100 | > 100 | > 100 | > 100 | > 100 | > 100 | > 100 | > 100 |
| N#Cc1ccccc1NC(=O)C(=O)C(C(=O)c1ccncc1)C1OC(=O)c2ccccc21 (centres undefined) | > 100 | > 100 | > 100 | > 100 | > 100 | > 100 | – | > 100 | > 100 | > 100 | > 100 | > 100 | > 100 | > 100 | > 100 | > 100 | > 100 | > 100 | > 100 | > 100 |
| CC(=O)C1C(=O)C(C(C)=O)C2C3C=CC(C3)C12 (centres undefined) | > 100 | > 100 | > 100 | > 100 | > 100 | > 100 | > 100 | > 100 | > 100 | > 100 | > 100 | > 100 | > 100 | > 100 | > 100 | > 100 | > 100 | > 100 | – | > 100 |
| Cc1ccc(N=C2OP(=O)(Nc3ccc(C)cc3)Oc3ccccc32)cc1 (centres undefined) | > 100 | > 100 | > 100 | > 100 | 90.5 | > 100 | > 100 | > 100 | – | > 100 | > 100 | > 100 | > 100 | > 100 | > 100 | > 100 | > 100 | > 100 | > 100 | > 100 |
| CCOC(=O)C(NC(=O)c1cccc(Cl)c1)(Nc1ccc(S(=O)(=O)Nc2cc(C)nc(C)n2)cc1)C(F)(F)F (centres undefined) | > 100 | > 100 | > 100 | > 100 | > 100 | > 100 | > 100 | > 100 | > 100 | > 100 | > 100 | > 100 | > 100 | > 100 | > 100 | > 100 | – | > 100 | > 100 | > 100 |
| CC(C)c1cccc(C(C)C)c1NC(=O)C(=O)C1CCC2=C(Sc3ccccc3N2)C1=O (centres undefined) | > 100 | > 100 | > 100 | > 100 | > 100 | > 100 | > 100 | > 100 | – | > 100 | > 100 | > 100 | 76.7 | > 100 | > 100 | > 100 | > 100 | 79.7 | > 100 | > 100 |
| CN1N=C2c3ccccc3OC(c3ccccc3)[C@H]2C1c1ccccc1 (some centres undefined) | > 100 | > 100 | > 100 | > 100 | > 100 | > 100 | > 100 | > 100 | > 100 | > 100 | > 100 | > 100 | > 100 | – | – | > 100 | > 100 | > 100 | > 100 | > 100 |
| COc1ccc2c(=O)c3c([nH]c2c1)OCC3=O | > 100 | > 100 | > 100 | > 100 | > 100 | > 100 | > 100 | > 100 | – | > 100 | – | > 100 | > 100 | > 100 | > 100 | > 100 | > 100 | > 100 | > 100 | > 100 |
| O=C(c1ccccc1)N(CCCCNC(=O)C(F)(F)F)CCCNC(=O)C(F)(F)F | > 100 | > 100 | > 100 | – | > 100 | > 100 | > 100 | > 100 | > 100 | > 100 | > 100 | > 100 | > 100 | > 100 | > 100 | > 100 | > 100 | > 100 | > 100 | > 100 |
| Cc1nc(C)c(N2CCN(S(N)(=O)=O)CC2)c(=O)[nH]1 | > 100 | > 100 | > 100 | > 100 | > 100 | > 100 | > 100 | > 100 | > 100 | > 100 | – | > 100 | > 100 | > 100 | – | > 100 | > 100 | > 100 | > 100 | > 100 |
| CN/N=C(\C(=O)Nc1ccc(C(F)(F)F)cc1[N+](=O)[O-])C(c1cnc2ccc([N+](=O)[O-])cc2n1)[N+](=O)[O-] (centres undefined) | > 100 | > 100 | > 100 | > 100 | > 100 | > 100 | > 100 | > 100 | 66.3 | – | 79.5 | > 100 | > 100 | > 100 | – | > 100 | – | > 100 | > 100 | > 100 |
| N#CC(C(=O)CCC(=O)Nc1cccc(C(F)(F)F)c1)c1ccccc1 (centres undefined) | > 100 | > 100 | > 100 | > 100 | > 100 | > 100 | > 100 | > 100 | > 100 | > 100 | > 100 | > 100 | > 100 | > 100 | > 100 | > 100 | > 100 | – | > 100 | > 100 |
| COc1ccc(/C=C2/SC(=Nc3ccccc3)N(NC(=O)Cc3ccccc3)C2=O)c(OC)c1 | > 100 | > 100 | > 100 | > 100 | 67.4 | > 100 | > 100 | > 100 | – | > 100 | > 100 | > 100 | > 100 | > 100 | > 100 | > 100 | > 100 | > 100 | > 100 | > 100 |
| CO/N=C(/C(=O)Nc1c[n+](CC(=O)[O-])cs1)c1csc(N)n1 | > 100 | > 100 | > 100 | – | > 100 | > 100 | > 100 | > 100 | > 100 | – | > 100 | > 100 | > 100 | > 100 | – | > 100 | > 100 | > 100 | > 100 | > 100 |
| C/C=C\C(CC(=O)NCCC1CN(C(=O)OCc2ccccc2)c2ccccc21)CC(=O)OC (centres undefined) | > 100 | > 100 | > 100 | > 100 | > 100 | > 100 | > 100 | > 100 | > 100 | > 100 | > 100 | > 100 | – | > 100 | > 100 | > 100 | > 100 | > 100 | > 100 | > 100 |
| Cc1c(C(=O)Nc2ccccc2)nnn1-c1ccnc2cc(C(F)(F)F)ccc12 | > 100 | > 100 | > 100 | – | 95.4 | > 100 | 79.6 | > 100 | > 100 | > 100 | > 100 | > 100 | > 100 | 52.6 | > 100 | > 100 | > 100 | > 100 | > 100 | > 100 |
| CC(C)(CCl)NC(=O)c1cccc(C(=O)NC(C)(C)CCl)n1 | > 100 | > 100 | > 100 | > 100 | > 100 | > 100 | > 100 | > 100 | > 100 | > 100 | > 100 | – | > 100 | > 100 | > 100 | > 100 | – | > 100 | > 100 | > 100 |
| O=C1/C(=C/c2ccccc2)CCc2ccc([N+](=O)[O-])cc21 | > 80.3 | > 100 | > 100 | > 100 | > 100 | > 100 | > 100 | > 100 | – | > 100 | > 100 | > 100 | > 100 | > 91.2 | > 74.6 | > 100 | > 100 | > 100 | > 96.4 | > 100 |
| CCN(CC)CCCNc1n[n+]([O-])c2ccccc2[n+]1[O-] | 33.4 | 16.6 | 53.1 | – | > 100 | 85.3 | 11.4 | 27.4 | 26.5 | > 100 | 69.7 | 29.3 | 68.9 | 3.54 | 77.1 | > 100 | 26 | 40.1 | > 100 | 49.3 |
